Biological target: human PDE10A2 (Homo sapiens (Human), UniProt Q9Y233)
Assay: PDE10 fluorescence polarization (IMAP FP) inhibition assay
Type: biochemical
Settings: human PDE10A2, FAM-labeled cAMP substrate, read-out: PDE10A Ki
Procedure: The activity of the compounds in accordance with the present invention as PDE10 inhibitors may be readily determined without undue experimentation using a fluorescence polarization (FP) methodology that is well known in the art (Huang, W., et al., J. Biomol Screen, 2002, 7: 215).
In a typical experiment the PDE10 inhibitory activity of the compounds of the present invention was determined in accordance with the following experimental method. PDE10A2 was amplified from human fetal brain cDNA (Clontech, Mountain View, Calif.) using a forward primer corresponding to nucleotides 56-77 of human PDE10A2 (Accession No. AF127480, Genbank Identifier 4894716), containing a Kozak consensus sequence, and a reverse primer corresponding to nucleotides 2406-2413 of human PDE10A2 (Accession No. AF127480, Genbank Identifier 4894716). Amplification with Easy-A polymerase (Stratagene, La Jolla, Calif.) was 95° C. for 2 minutes followed by thirty three cycles of 95° C. for 40 seconds, 55° C. for 30 seconds, and 72° C. for 2 minutes 48 seconds. Final extension was 72° C. for 7 minutes. The PCR product was TA cloned into pcDNA3.2-TOPO (Invitrogen, Carlsbad, Calif.) according to standard protocol. AD293 cells with 70-80% confluency were transiently transfected with human PDE10A2/pcDNA3.2-TOPO using Lipofectamine 2000 according to manufacturer specifications (Invitrogen, Carlsbad, Calif.). Cells were harvested 48 hours post-transfection and lysed by sonication (setting 3, 10×5 sec pulses) in a buffer containing 20 mM HEPES, 1 mM EDTA and protease inhibitor cocktail (Roche). Lysate was collected by centrifugation at 75,000×g for 20 minutes. Supernatant containing the cytoplasmic fraction was used for evaluation of PDE10A2 activity. The fluorescence polarization assay for cyclic nucleotide phosphodiesterases was performed using an IMAP® FP kit supplied by Molecular Devices, Sunnyvale, Calif. (product # R8139). IMAPU technology has been applied previously to phosphodiesterase assays (Huang, W., et al., J. Biomol Screen, 2002, 7: 215). Assays were performed at room temperature in 384-well microtiter plates with an incubation volume of 20.2 μL. Solutions of test compounds were prepared in DMSO and serially diluted with DMSO to yield 8 μL of each of 10 solutions differing by 3-fold in concentration, at 32 serial dilutions per plate. 100% inhibition is determined using a known PDE10 inhibitor, which can be any compound that is present at 5,000 times its Ki value in the assay described as follows, such as papaverine (see Siuciak, et al. Neuropharmacology (2006) 51:386-396; Becker, et al. Behav Brain Res (2008) 186(2):155-60; Threlfell, et al., J Pharmacol Exp Ther (2009) 328(3):785-795), 2-{4-[pyridin-4-yl-1-(2,2,2-trifluoroethyl)-1H-pyrazol-3-yl]phenoxymethyl}quinoline succinic acid or 2-[4-(1-methyl-4-pyridin-4-yl-1H-pyrazol-3-yl)-phenoxymethyl]quinoline succinic acid (see Schmidt, et al. J Pharmacol Exp Ther (2008) 325:681-690; Threlfell, et al., J Pharmacol Exp Ther (2009) 328(3): 785-795). 0% of inhibition is determined by using DMSO (1% final concentrations).
A Labcyte Echo 555 (Labcyte, Sunnyvale, Calif.) is used to dispense 200 nL from each well of the titration plate to the 384 well assay plate. A solution of enzyme (1/1600 dilution from aliquots; sufficient to produce 20% substrate conversion) and a separate solution of FAM-labeled cAMP PDE from Molecular Devices (product # R7506), at a final concentration of 50 nM are made in the assay buffer (10 mM Tris HCl, pH 7.2, 10 mM MgCl2, 0.05% NaN3 0.01% Tween-20, and 1 mM DTT). The enzyme and the substrate are then added to the assay plates in two consecutive additions of 10 μL, and then shaken to mix. The reaction is allowed to proceed at room temperature for 30 minutes. A binding solution is then made from the kit components, comprised of 80% Solution A, 20% Solution B and binding reagent at a volume of 1/600 the total binding solution.

Sequence of human PDE10A2 (Q9Y233 267-1055): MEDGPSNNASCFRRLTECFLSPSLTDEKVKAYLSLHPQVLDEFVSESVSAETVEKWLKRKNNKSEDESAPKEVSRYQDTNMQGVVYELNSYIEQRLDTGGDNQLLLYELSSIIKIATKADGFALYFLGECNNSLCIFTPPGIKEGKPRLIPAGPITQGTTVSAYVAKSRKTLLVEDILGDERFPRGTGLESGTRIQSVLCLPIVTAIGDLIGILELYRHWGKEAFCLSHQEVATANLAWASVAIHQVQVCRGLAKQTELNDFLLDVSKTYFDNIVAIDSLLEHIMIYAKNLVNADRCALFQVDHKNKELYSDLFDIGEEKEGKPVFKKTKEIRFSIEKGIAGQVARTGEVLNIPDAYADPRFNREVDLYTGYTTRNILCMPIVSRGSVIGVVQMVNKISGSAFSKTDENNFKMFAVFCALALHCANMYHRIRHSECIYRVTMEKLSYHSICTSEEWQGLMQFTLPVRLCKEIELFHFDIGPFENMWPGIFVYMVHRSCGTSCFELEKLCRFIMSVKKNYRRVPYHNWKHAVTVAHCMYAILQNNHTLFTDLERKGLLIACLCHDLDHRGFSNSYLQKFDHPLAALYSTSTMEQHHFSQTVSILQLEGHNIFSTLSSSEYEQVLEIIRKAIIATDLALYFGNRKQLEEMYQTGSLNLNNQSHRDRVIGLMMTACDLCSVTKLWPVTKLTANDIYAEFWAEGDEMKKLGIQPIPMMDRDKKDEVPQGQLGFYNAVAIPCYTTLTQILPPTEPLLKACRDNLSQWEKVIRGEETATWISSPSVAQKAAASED

Compound	Ki
COc1ccc([C@H]2C[C@@H]2COc2nc(C)ncc2-c2ccc(=O)n(OC)c2)nc1 [Example 22, 1-methoxy-5-(4-(((1S,2S)-2-(5-methoxypyridin-2-yl)cyclopropyl)methoxy)-2-methylpyrimidin-5-yl)pyridin-2(1H)-one]	1900 pM
Cc1ccc([C@H]2C[C@@H]2COc2nc(C)ncc2-c2ccc(=O)n(C3CC3)c2)nc1 [Example 23, 1-cyclopropyl-5-(2-methyl-4-(((1S,2S)-2-(5-methylpyridin-2-yl)cyclopropyl)methoxy)pyrimidin-5-yl)pyridin-2(1H)-one]	519 pM
CCn1cc(-c2cnc(C)nc2OC[C@H]2C[C@@H]2c2ccc(OC)cn2)ccc1=O [Example 24, 1-ethyl-5-(4-(((1S,2S)-2-(5-methoxypyridin-2-yl)cyclopropyl)methoxy)-2-methylpyrimidin-5-yl)pyridin-2(1H)-one]	1070 pM
Cc1ccc([C@H]2C[C@@H]2COc2nc(C)ncc2-c2cc(F)c(=O)n(C)c2)nc1 [Example 25, 3-fluoro-1-methyl-5-(2-methyl-4-(((1S,2S)-2-(5-methylpyridin-2-yl)cyclopropyl)methoxy)pyrimidin-5-yl)pyridin-2(1H)-one]	1550 pM
COc1ccc([C@H]2C[C@@H]2COc2nc(C)ncc2-c2ccc(=O)n(C)c2C)nc1 [Example 27, 5-(4-(((1S,2S)-2-(5-methoxypyridin-2-yl)cyclopropyl)methoxy)-2-methylpyrimidin-5-yl)-1,6-dimethylpyridin-2(1H)-one]	113 pM
Cc1ccc([C@H]2C[C@@H]2COc2nc(C)ncc2-c2ccc(=O)n(C)c2)nc1 [Example 28, 1-methyl-5-(2-methyl-4-(((1S,2S)-2-(5-methylpyridin-2-yl)cyclopropyl)methoxy)pyrimidin-5-yl)pyridin-2(1H)-one]	2040 pM
Cc1ncc(-c2ccc(=O)n(C)c2)c(OC[C@H]2C[C@@H]2c2ccc3ccccc3n2)n1 [Example 29, 1-methyl-5-(2-methyl-4-(((1S,2S)-2-(quinolin-2-yl)cyclopropyl)methoxy)pyrimidin-5-yl)pyridin-2(1H)-one]	52 pM
COCCn1c(C)c(-c2cnc(C)nc2OC[C@H]2C[C@@H]2c2ccc(OC)cn2)ccc1=O [Example 30, 1-(2-methoxyethyl)-5-(4-(((1S,2S)-2-(5-methoxypyridin-2-yl)cyclopropyl)methoxy)-2-methylpyrimidin-5-yl)-6-methylpyridin-2(1H)-one]	1460 pM
COCCn1c(C)c(-c2cnc(C)nc2OC[C@H]2C[C@@H]2c2ccc3ccccc3n2)ccc1=O [Example 31, 1-(2-methoxyethyl)-6-methyl-5-(2-methyl-4-(((1S,2S)-2-(quinolin-2-yl)cyclopropyl)methoxy)pyrimidin-5-yl)pyridin-2(1H)-one]	45 pM
CCn1cc(-c2cnc(C)nc2OC[C@H]2C[C@@H]2c2ccc3ccccc3n2)ccc1=O [Example 32, 1-ethyl-5-(2-methyl-4-(((1S,2S)-2-(quinolin-2-yl)cyclopropyl)methoxy)pyrimidin-5-yl)pyridin-2(1H)-one]	24 pM
CCn1c(C)c(-c2cnc(C)nc2OC[C@H]2C[C@@H]2c2ccc(OC)cn2)ccc1=O [Example 33, 1-ethyl-5-(4-(((1S,2S)-2-(5-methoxypyridin-2-yl)cyclopropyl)methoxy)-2-methylpyrimidin-5-yl)-6-methylpyridin-2(1H)-one]	1780 pM
Cc1ncc(-c2ccc(=O)n(C)c2C)c(OC[C@H]2C[C@@H]2c2ccc3ccccc3n2)n1 [Example 34, 1,6-dimethyl-5-(2-methyl-4-(((1S,2S)-2-(quinolin-2-yl)cyclopropyl)methoxy)pyrimidin-5-yl)pyridin-2(1H)-one]	6 pM
CCn1cc(-c2cnc(C)nc2OC[C@H]2C[C@@H]2c2ccc(OC)cn2)cc(C)c1=O [Example 35, 1-ethyl-5-(4-(((1S,2S)-2-(5-methoxypyridin-2-yl)cyclopropyl)methoxy)-2-methylpyrimidin-5-yl)-3-methylpyridin-2(1H)-one]	381 pM
CCn1c(C)c(-c2cnc(C)nc2OC[C@H]2C[C@@H]2c2ccc3ccccc3n2)ccc1=O [Example 36, 1-ethyl-6-methyl-5-(2-methyl-4-(((1S,2S)-2-(quinolin-2-yl)cyclopropyl)methoxy)pyrimidin-5-yl)pyridin-2(1H)-one]	45 pM
Cc1ccc([C@H]2C[C@@H]2COc2nc(C)ncc2-c2ccc(=O)n(C(C)C)c2C)nc1 [Example 37, 1-isopropyl-6-methyl-5-(2-methyl-4-(((1S,2S)-2-(5-methylpyridin-2-yl)cyclopropyl)methoxy)pyrimidin-5-yl)pyridin-2(1H)-one]	4270 pM
COc1ccc([C@H]2C[C@@H]2COc2nc(C)ncc2-c2cc(C)c(=O)n(C)c2)nc1 [Example 38, 5-(4-(((1S,2S)-2-(5-methoxypyridin-2-yl)cyclopropyl)methoxy)-2-methylpyrimidin-5-yl)-1,3-dimethylpyridin-2(1H)-one]	727 pM
COCCn1cc(-c2cnc(C)nc2OC[C@H]2C[C@@H]2c2ccc(OC)cn2)ccc1=O [Example 39, 1-(2-methoxyethyl)-5-(4-(((1S,2S)-2-(5-methoxypyridin-2-yl)cyclopropyl)methoxy)-2-methylpyrimidin-5-yl)pyridin-2(1H)-one]	821 pM
Cc1ccc([C@H]2C[C@@H]2COc2nc(C)ncc2-c2cc(C)c(=O)n(C)c2)nc1 [Example 40, 1,3-dimethyl-5-(2-methyl-4-(((1S,2S)-2-(5-methylpyridin-2-yl)cyclopropyl)methoxy)pyrimidin-5-yl)pyridin-2(1H)-one]	409 pM
CCn1cc(-c2cnc(C)nc2OC[C@H]2C[C@@H]2c2ccc(C)cn2)cc(C)c1=O [Example 41, 1-ethyl-3-methyl-5-(2-methyl-4-(((1S,2S)-2-(5-methylpyridin-2-yl)cyclopropyl)methoxy)pyrimidin-5-yl)pyridin-2(1H)-one]	533 pM
Cc1ncc(-c2ccc(=O)n(C)c2)c(OC[C@H]2C[C@@H]2c2ccc3c(n2)CCC3)n1 [Example 42, 5-(4-(((1S,2S)-2-(6,7-dihydro-5H-cyclopenta[b]pyridin-2-yl)cyclopropyl)methoxy)-2-methylpyrimidin-5-yl)-1-methylpyridin-2(1H)-one]	531 pM
Cc1ccc([C@H]2C[C@@H]2COc2nc(C)ncc2-c2ccc(=O)n(CC(F)F)c2)nc1 [Example 43, 1-(2,2-difluoroethyl)-5-(2-methyl-4-(((1S,2S)-2-(5-methylpyridin-2-yl)cyclopropyl)methoxy)pyrimidin-5-yl)pyridin-2(1H)-one]	2560 pM
COc1ccc([C@H]2C[C@@H]2COc2nc(C)ncc2-c2ccc(=O)n(CC(F)F)c2)nc1 [Example 44, 1-(2,2-difluoroethyl)-5-(4-(((1S,2S)-2-(5-methoxypyridin-2-yl)cyclopropyl)methoxy)-2-methylpyrimidin-5-yl)pyridin-2(1H)-one]	2300 pM
COc1ccc([C@H]2C[C@@H]2COc2nc(C)ncc2-c2ccc(=O)n(CCC#N)c2)nc1 [Example 45, 3-(5-(4-(((1S,2S)-2-(5-methoxypyridin-2-yl)cyclopropyl)methoxy)-2-methylpyrimidin-5-yl)-2-oxopyridin-1(2H)-yl)propanenitrile]	1780 pM
Cc1ccc([C@H]2C[C@@H]2COc2nc(C)ncc2-c2ccc(=O)n(CCC#N)c2)nc1 [Example 46, 3-(5-(2-methyl-4-(((1S,2S)-2-(5-methylpyridin-2-yl)cyclopropyl)methoxy)pyrimidin-5-yl)-2-oxopyridin-1(2H)-yl)propanenitrile]	2150 pM
